These compounds were tested against T1, mouse TAAR1 (Mus musculus, UniProt Q923Y8) (assay: Radioligand binding on membranes of HEK293 cells stably expressing TAAR1, [3H]-rac-2-(1,2,3,4-tetrahydro-1-naphthyl)-2-imidazoline). Conditions: mouse TAAR1; radioligand at 60 nM; 4° C., 30 min incubation.
T1 construct: expressed in transfected cells; host or cells: HEK293 (ATCC # CRL-1573), stably transfected with pIRESneo2 expression plasmid
T1 sequence (Q923Y8 whole entry): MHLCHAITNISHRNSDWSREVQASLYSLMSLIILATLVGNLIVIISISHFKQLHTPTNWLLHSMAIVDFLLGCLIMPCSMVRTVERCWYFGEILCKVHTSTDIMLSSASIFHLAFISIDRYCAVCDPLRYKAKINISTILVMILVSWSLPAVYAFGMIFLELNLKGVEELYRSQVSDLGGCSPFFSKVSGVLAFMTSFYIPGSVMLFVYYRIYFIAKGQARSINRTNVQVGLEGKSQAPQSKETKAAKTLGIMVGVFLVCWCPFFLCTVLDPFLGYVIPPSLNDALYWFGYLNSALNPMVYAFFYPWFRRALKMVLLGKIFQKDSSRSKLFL
Description: For the construction of expression plasmids the coding sequences of human, rat and mouse TAAR 1 were amplified from genomic DNA essentially as described by Lindemann et al.. The Expand High Fidelity PCR System (Roche Diagnostics) was used with 1.5 mM Mg^2+ and purified PCR products were cloned into pCR2.1-TOPO cloning vector (Invitrogen) following the instructions of the manufacturer. PCR products were subcloned into the pIRESneo2 vector (BD Clontech, Palo Alto, Calif.), and expression vectors were sequence verified before introduction in cell lines.
HEK293 cells (ATCC # CRL-1573) were cultured essentially as described Lindemann et al. (2005). For the generation of stably transfected cell lines HEK293 cells were transfected with the pIRESneo2 expression plasmids containing the TAAR coding sequences (described above) with Lipofectamine 2000 (Invitrogen) according to the instructions of the manufacturer, and 24 hrs post transfection the culture medium was supplemented with 1 mg/ml G418 (Sigma, Buchs, Switzerland). After a culture period of about 10 d clones were isolated, expanded and tested for responsiveness to trace amines (all compounds purchased from Sigma) with the cAMP Biotrak Enzyme immunoassay (EIA) System (Amersham) following the non-acetylation EIA procedure provided by the manufacturer.
Cells at confluence were rinsed with ice-cold phosphate buffered saline without Ca^2+ and Mg^2+ containing 10 mM EDTA and pelleted by centrifugation at 1000 rpm for 5 min at 4° C. The pellet was then washed twice with ice-cold phosphate buffered saline and cell pellet was frozen immediately by immersion in liquid nitrogen and stored until use at −80° C. Cell pellet was then suspended in 20 ml HEPES—NaOH (20 mM), pH 7.4 containing 10 mM EDTA, and homogenized with a Polytron (PT 3000, Kinematica) at 10,000 rpm for 10 s. The homogenate was centrifuged at 48,000×g for 30 min at 4° C. and the pellet resuspended in 20 ml HEPES—NaOH (20 mM), pH 7.4 containing 0.1 mM EDTA (buffer A), and homogenized with a Polytron at 10,000 rpm for 10 s. The homogenate was then centrifuged at 48,000×g for 30 min at 4° C. and the pellet resuspended in 20 ml buffer A, and homogenized with a Polytron at 10,000 rpm for 10 s. Protein concentration was determined by the method of Pierce (Rockford, Ill.). The homogenate was then centrifuged at 48,000×g for 10 min at 4° C., resuspended in HEPES—NaOH (20 mM), pH 7.0 including MgCl2 (10 mM) and […] homogenized with a Polytron at 10,000 rpm for 10 s.
Binding assay was performed at 4° C. in a final volume of 1 ml, and with an incubation time of 30 min. The radioligand [^3H]-rac-2-(1,2,3,4-tetrahydro-1-naphthyl)-2-imidazoline was used at a concentration equal to the calculated Kd value of 60 nM to give a bound at around 0.1% of the total added radioligand concentration, and a specific binding which represented approximately 70-80% of the total binding. Non-specific binding was defined as the amount of [^3H]-rac-2-(1,2,3,4-tetrahydro-1-naphthyl)-2-imidazoline bound in the presence of the appropriate unlabelled ligand (10 μM). Competing ligands were tested in a wide range of concentrations (10 pM-30 μM). […] Each experiment was performed in duplicate. All incubations were terminated by rapid filtration through UniFilter-96 plates (Packard Instrument Company) and glass filter GF/C, pre-soaked for at least 2 h in polyethylenimine 0.3%, and using a Filtermate 96 Cell Harvester (Packard Instrument Company). The tubes and filters were then washed 3 times with 1 ml aliquots of cold buffer B. Filters were not dried and soaked in Ultima gold (45 μl/well, Packard Instrument Company) and bound radioactivity was counted by a TopCount Microplate Scintillation Counter (Packard Instrument Company).
`Cc1cccc(C)c1N=C1NCCN1` [Example 2, (4,5-Dihydro-1H-imidazol-2-yl)-(2,6-dimethyl-phenyl)-amine or tautomer] gave a Ki of 0.149 µM.
Work on `CCc1cccc(CC)c1NC1=NCCN1` [Example 3, (2,6-Diethyl-phenyl)-(4,5-dihydro-1H-imidazol-2-yl)-amine or tautomer] yielded a Ki of 0.026 µM.
`Brc1cccc(Br)c1N=C1NCCN1` [Example 6, (2,6-Dibromo-phenyl)-imidazolidin-2-ylidene-amine or tautomer] showed a Ki of 0.501 µM.
`CCc1cccc(C)c1NC1=NCCN1` [Example 7, (4,5-Dihydro-1H-imidazol-2-yl)-(2-ethyl-6-methyl-phenyl)-amine or tautomer] was tested, and the Ki was 0.169 µM.
In the case of `Cc1cccc(C(C)C)c1NC1=NCCN1` [Example 8, (4,5-Dihydro-1H-imidazol-2-yl)-(2-isopropyl-6-methyl-phenyl)-amine or tautomer], the Ki is reported as 0.476 µM.
In the case of `Cc1ccc(Cl)cc1N=C1NCCN1` [Example 9, (5-Chloro-2-methyl-phenyl)-imidazolidin-2-ylidene-amine or tautomer], the Ki is reported as 0.225 µM.
For `O=C(CCc1ccc(NC2=NCCN2)cc1)c1ccc2ccccc2c1` [Example 11, 3-[4-(4,5-Dihydro-1H-imidazol-2-ylamino)-phenyl]-1-naphthalen-2-yl-propan-1-one ortautomer], the Ki was 0.121 µM.
In the case of `c1ccc2c(N=C3NCCN3)cccc2c1` [Example 14, Imidazolidin-2-ylidene-naphthalen-1-yl-amineor tautomer], the Ki is reported as 0.036 µM.
`c1cc2c(c(NC3=NCCN3)c1)CCCC2` [Example 15, (4,5-Dihydro-1H-imidazol-2-yl)-(5,6,7,8-tetrahydro-naphthalen-1-yl)-amine or tautomer] gave a Ki of 0.039 µM.
`Cc1csc(Cl)c1NC1=NCCN1` [Example 16, (2-Chloro-4-methyl-thiophen-3-yl)-(4,5-dihydro-1H-imidazol-2-yl)-amine or tautomer] gave a Ki of 0.294 µM.
Work on `Clc1cccc(Cl)c1SC1=NCCN1` [Example 18, 2-(2,6-Dichloro-phenylsulfanyl)-4,5-dihydro-1H-imidazole] yielded a Ki of 0.03 µM.

Same assay, conditions: radioligand used in the TAAR1 binding assay; TAAR1 species not given; read-out: calculated Kd value of the radioligand
With `c1ccc2c(c1)CCCC2C1=NCCN1` (racemic) [[^3H]-rac-2-(1,2,3,4-tetrahydro-1-naphthyl)-2-imidazoline, reference compound] the Kd was 60 nM.
